Several values for one entry are separate records, joined by “and”; a condition that tells them apart may be missing. Identical values can stand only once. Inconclusive results and toxic doses are left out. Rule as the data show it: active = T/C of 150% or more; inactive = T/C below 125%.
System: L1210 leukemia ip in BDF1 mice, survival T/C
Test: NCI In Vivo Anticancer Drug Screen. Data for tumor model L1210 Leukemia (intraperitoneal) in B6D2F1 (BDF1) mice
Conditions: endpoint: mean survival time, higher = longer survival
Procedure, shortened: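 Antitumor effect is assessed in tumor-bearing animals. Survival in the compound arm is compared with a vehicle-dosed control arm and expressed as their quotient.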

[1] = dose: 100.0 mg/kg/injection, schedule: Q01DX001 (ip), vehicle: saline
[2] = dose: 100.0 mg/kg/injection, schedule: Q04DX003 (ip), vehicle: Klucel (hydroxypropylcellulose) (HPC)
[3] = dose: 200.0 mg/kg/injection, schedule: Q01DX001 (ip), vehicle: saline
[4] = dose: 200.0 mg/kg/injection, schedule: Q04DX003 (ip), vehicle: Klucel (hydroxypropylcellulose) (HPC)
[5] = dose: 400.0 mg/kg/injection, schedule: Q01DX001 (ip), vehicle: saline
[6] = dose: 400.0 mg/kg/injection, schedule: Q04DX003 (ip), vehicle: Klucel (hydroxypropylcellulose) (HPC)
[7] = dose: 100.0 mg/kg/injection, schedule: Q04DX003 (ip), vehicle: saline with Tween-80
[8] = dose: 100.0 mg/kg/injection, schedule: Q01DX001 (ip), vehicle: carboxymethylcellulose (CMC)
[9] = dose: 200.0 mg/kg/injection, schedule: Q01DX001 (ip), vehicle: carboxymethylcellulose (CMC)
[10] = dose: 100.0 mg/kg/injection, schedule: Q04DX003 (ip), vehicle: saline
[11] = dose: 200.0 mg/kg/injection, schedule: Q04DX003 (ip), vehicle: saline
[12] = dose: 400.0 mg/kg/injection, schedule: Q04DX003 (ip), vehicle: saline
[13] = dose: 100.0 mg/kg/injection, schedule: Q04DX002 (ip), vehicle: Klucel (hydroxypropylcellulose) (HPC)
[14] = dose: 200.0 mg/kg/injection, schedule: Q04DX002 (ip), vehicle: Klucel (hydroxypropylcellulose) (HPC)
[15] = dose: 100.0 mg/kg/injection, schedule: Q01DX009 (ip), vehicle: saline with Tween-80
[16] = dose: 200.0 mg/kg/injection, schedule: Q01DX009 (ip), vehicle: saline with Tween-80
[17] = dose: 400.0 mg/kg/injection, schedule: Q01DX009 (ip), vehicle: saline with Tween-80
[18] = dose: 100.0 mg/kg/injection, schedule: Q01DX001 (ip), vehicle: saline with Tween-80
[19] = dose: 100.0 mg/kg/injection, schedule: Q04DX002 (ip), vehicle: saline with Tween-80
[20] = dose: 200.0 mg/kg/injection, schedule: Q01DX001 (ip), vehicle: saline with Tween-80
[21] = dose: 200.0 mg/kg/injection, schedule: Q04DX002 (ip), vehicle: saline with Tween-80
[22] = dose: 200.0 mg/kg/injection, schedule: Q04DX003 (ip), vehicle: saline with Tween-80
[23] = dose: 400.0 mg/kg/injection, schedule: Q01DX001 (ip), vehicle: saline with Tween-80
[24] = dose: 400.0 mg/kg/injection, schedule: Q04DX002 (ip), vehicle: saline with Tween-80
[25] = dose: 400.0 mg/kg/injection, schedule: Q04DX003 (ip), vehicle: saline with Tween-80

Measured: T/C

CCN(CC)CCCC(C)Nc1nc(/C=C/c2ccc(Cl)cc2)nc(Cl)c1-c1ccc(Cl)cc1 (stereo not given)
inactive: [1] 89 % of control | [2] 95 % of control | [3] 88 % of control | [4] 101 % of control | [5] 96 % of control | [6] 104 % of control

CCOC(=O)c1ccc(OC(=O)Nc2ccc(Cl)cc2OC)cc1
inactive: dose: 100.0 mg/kg/injection, schedule: Q01DX009 (ip), vehicle: saline 87 % of control | dose: 200.0 mg/kg/injection, schedule: Q01DX009 (ip), vehicle: saline 100 % of control

O=C(OCC1CC1)c1cc([N+](=O)[O-])cc([N+](=O)[O-])c1
inactive: dose: 25.0 mg/kg/injection, schedule: Q04DX003 (ip), vehicle: saline with Tween-80 108 % of control | dose: 50.0 mg/kg/injection, schedule: Q04DX003 (ip), vehicle: saline with Tween-80 106 % of control | [7] 101 % of control

COc1ccc(N2C(=O)C3C(C2=O)C2c4ccccc4C3C3CCCCN32)cc1 (stereo not given)
inactive: dose: 75.0 mg/kg/injection, schedule: Q01DX001 (ip), vehicle: other 103 % of control

CC1CCc2c(O)ccc(O)c21 (stereo not given)
inactive: [8] 102 % of control | [9] 96 % of control | dose: 400.0 mg/kg/injection, schedule: Q01DX001 (ip), vehicle: carboxymethylcellulose (CMC) 94 % of control

Nc1cncc([N+](=O)[O-])c1N
inactive: [10] 98 % of control | [11] 96 % of control | [12] 94 % of control

O=C(O)/C(Cc1cn[nH]n1)=N\O
inactive: dose: 100.0 mg/kg/injection, schedule: Q01DX001 (ip), vehicle: other 95 % of control | dose: 200.0 mg/kg/injection, schedule: Q01DX001 (ip), vehicle: other 101 % of control | dose: 400.0 mg/kg/injection, schedule: Q01DX001 (ip), vehicle: other 101 % of control

O=C1c2cccc3c([N+](=O)[O-])ccc(c23)C(=O)N1Cc1cccnc1
inactive: dose: 25.0 mg/kg/injection, schedule: Q04DX002 (ip), vehicle: Klucel (hydroxypropylcellulose) (HPC) 106 % of control | dose: 50.0 mg/kg/injection, schedule: Q04DX002 (ip), vehicle: Klucel (hydroxypropylcellulose) (HPC) 100 % of control | [13] 103 % of control and 86 % of control | [14] 101 % of control

O=C(Nc1ccc(F)cc1)c1ccc(Cl)cc1Cl
inactive: [1] 93 % of control | [10] 97 % of control | [3] 95 % of control | [11] 107 % of control | [5] 88 % of control | [12] 100 % of control

CCOC(=O)CNC(=O)Nc1ccc(NC(C)=O)cc1
inactive: [15] 94 % of control | [16] 94 % of control | [17] 88 % of control

O=Nc1ccc2cc(O)ccc2c1O
inactive: dose: 1.56 mg/kg/injection, schedule: Q01DX009 (ip), vehicle: Klucel (hydroxypropylcellulose) (HPC) 96 % of control | dose: 3.12 mg/kg/injection, schedule: Q01DX009 (ip), vehicle: Klucel (hydroxypropylcellulose) (HPC) 96 % of control | dose: 6.25 mg/kg/injection, schedule: Q01DX009 (ip), vehicle: Klucel (hydroxypropylcellulose) (HPC) 104 % of control | dose: 12.5 mg/kg/injection, schedule: Q01DX009 (ip), vehicle: Klucel (hydroxypropylcellulose) (HPC) 101 % of control | dose: 12.5 mg/kg/injection, schedule: Q04DX003 (ip), vehicle: Klucel (hydroxypropylcellulose) (HPC) 103 % of control | dose: 25.0 mg/kg/injection, schedule: Q04DX003 (ip), vehicle: Klucel (hydroxypropylcellulose) (HPC) 97 % of control | dose: 50.0 mg/kg/injection, schedule: Q04DX003 (ip), vehicle: Klucel (hydroxypropylcellulose) (HPC) 100 % of control

CN=C(NC)c1cccc(NC(=O)c2ccc(C(=O)Nc3cccc(C(=NC)NC)c3)cc2)c1
inactive: dose: 1.2 mg/kg/injection, schedule: Q01DX Z (ip), vehicle: carboxymethylcellulose (CMC) 93 % of control | dose: 2.5 mg/kg/injection, schedule: Q01DX Z (ip), vehicle: carboxymethylcellulose (CMC) 96 % of control | dose: 5.0 mg/kg/injection, schedule: Q01DX Z (ip), vehicle: carboxymethylcellulose (CMC) 93 % of control | dose: 10.0 mg/kg/injection, schedule: Q01DX Z (ip), vehicle: carboxymethylcellulose (CMC) 100 % of control

CO/C(=C\c1ccc(OC)cc1)C(=O)O
inactive: dose: 100.0 mg/kg/injection, schedule: Q01DX009 (ip), vehicle: Klucel (hydroxypropylcellulose) (HPC) 93 % of control | [2] 100 % of control | dose: 200.0 mg/kg/injection, schedule: Q01DX009 (ip), vehicle: Klucel (hydroxypropylcellulose) (HPC) 90 % of control | [4] 101 % of control | dose: 400.0 mg/kg/injection, schedule: Q01DX009 (ip), vehicle: Klucel (hydroxypropylcellulose) (HPC) 93 % of control | [6] 100 % of control

CCCCNc1ncnc2c1cnn2C
inactive: dose: 31.25 mg/kg/injection, schedule: Q01DX010 (ip), vehicle: saline 94 % of control and 105 % of control | dose: 50.0 mg/kg/injection, schedule: Q01DX Z (ip), vehicle: saline 102 % of control | dose: 62.5 mg/kg/injection, schedule: Q01DX010 (ip), vehicle: saline 100 % of control | dose: 75.0 mg/kg/injection, schedule: Q01DX Z (ip), vehicle: saline 100 % of control | dose: 100.0 mg/kg/injection, schedule: Q01DX Z (ip), vehicle: saline 111 % of control | dose: 125.0 mg/kg/injection, schedule: Q01DX010 (ip), vehicle: saline 97 % of control and 113 % of control | [3] 98 % of control

COc1ccc(-c2sc(/N=C/c3ccc(N(C)CCC#N)cc3)c(C#N)c2C)cc1OC
inactive: [18] 100 % of control | [19] 103 % of control and 118 % of control | [7] 102 % of control and 91 % of control | [20] 91 % of control | [21] 93 % of control and 96 % of control | [22] 95 % of control and 98 % of control | [23] 100 % of control | [24] 104 % of control and 106 % of control | [25] 102 % of control and 91 % of control

Cc1cc(Cl)ccc1OC(=O)Nc1ccccc1Cl
inactive: [18] 97 % of control | [15] 102 % of control and 106 % of control | [13] 103 % of control | [19] 105 % of control and 89 % of control | [7] 96 % of control | [20] 94 % of control | [16] 100 % of control and 88 % of control | [14] 124 % of control | [21] 92 % of control and 100 % of control | [22] 100 % of control | [23] 99 % of control | [17] 102 % of control and 106 % of control | dose: 400.0 mg/kg/injection, schedule: Q04DX002 (ip), vehicle: Klucel (hydroxypropylcellulose) (HPC) 106 % of control | [24] 92 % of control and 105 % of control | [25] 96 % of control

Nc1nc2c(nc(NO)n2C2OC(CO)C(O)C2O)c(=O)[nH]1 (stereo not given)
inactive: dose: 50.0 mg/kg/injection, schedule: Q01DX001 (ip), vehicle: carboxymethylcellulose (CMC) 95 % of control | [8] 110 % of control | [9] 101 % of control

Reference: PubChem BioAssay AID248 (DTP/NCI, 2004)
